The values that follow come from patent US20230304010A1, “COMPOSITIONS AND METHODS FOR TREATING VIRAL INFECTIONS” (priority 2020, published 2023).

Read-outs that look alike come from different tables or passages of the source. Ends that are not written are not given here.

For orientation: IC50 means the concentration that gives 50% inhibition. What is called CC50 is the concentration at which the toxic effect on the cells reaches its halfway point. One may read the viability as a read-out of living cells in per cent, often relative to untreated cells. Read a low viability as more harm to the cells.

Data set [1] relates to SARS-CoV-2 Nucleocapsid gene. It counts as cell-based.
Data set [2] can be described thus: Nanoparticle formation of peptides with ADGN-106: mean size and polydispersity (Zetasizer). It counts as physicochemical. The settings on record: 25° C.; for Mean Size (nm): peptide/ADGN-106 complexes; for PI: polydispersity index of peptide/ADGN-106 complexes. The text has this:
We then tested the ability of the different peptides to form nanoparticle organization in the presence of ADGN-106 or ADGN-100 peptide. […] Peptides were complexed with 5 or 10 molar excess of ADGN-106.

For data set [3], the target named is ACE2:SARS-CoV-2 Spike interaction (UniProt P0DTC2+Q9BYF1). The data set is described as follows: biochemical. It counts as binding.
For data set [4], the target named is SARS-CoV-2 Spike: ACE2 interaction (UniProt P0DTC2+Q9BYF1). The data set is described as follows: biochemical. The data set is classed as binding.
Data set [5] can be described thus: in vitro. To be noted: uninfected Vero E6 cells.
Data set [6] relates to SARS-CoV-2.

Chain of SARS-CoV-2 Spike: ACE2 interaction (Q9BYF1 18-740, one chain of several): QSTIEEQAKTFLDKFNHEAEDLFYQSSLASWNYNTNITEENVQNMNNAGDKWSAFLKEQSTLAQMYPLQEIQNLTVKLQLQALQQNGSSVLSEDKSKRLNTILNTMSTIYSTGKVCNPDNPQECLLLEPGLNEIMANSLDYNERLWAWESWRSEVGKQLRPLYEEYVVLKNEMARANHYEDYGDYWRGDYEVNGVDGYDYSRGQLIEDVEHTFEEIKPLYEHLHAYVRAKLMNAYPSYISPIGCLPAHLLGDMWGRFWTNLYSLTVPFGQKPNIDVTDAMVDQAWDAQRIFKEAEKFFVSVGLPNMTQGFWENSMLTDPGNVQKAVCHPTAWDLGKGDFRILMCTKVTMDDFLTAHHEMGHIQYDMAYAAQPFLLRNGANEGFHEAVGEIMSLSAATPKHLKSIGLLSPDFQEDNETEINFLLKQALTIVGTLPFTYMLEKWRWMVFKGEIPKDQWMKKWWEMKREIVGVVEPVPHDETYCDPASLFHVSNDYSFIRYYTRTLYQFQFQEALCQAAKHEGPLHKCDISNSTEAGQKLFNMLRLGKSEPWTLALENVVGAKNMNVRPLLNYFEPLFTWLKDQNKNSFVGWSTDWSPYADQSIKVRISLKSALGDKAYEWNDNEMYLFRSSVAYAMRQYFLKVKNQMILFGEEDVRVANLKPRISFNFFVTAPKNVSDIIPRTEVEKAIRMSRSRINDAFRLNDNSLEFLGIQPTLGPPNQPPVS
Chain of ACE2:SARS-CoV-2 Spike interaction (Q9BYF1 18-740, one chain of several): as above

For “AAGCATATTGACGCATACAAA (chemistry not given here) [DIVC-9]”, in data set [1], the IC50 came out at 0.394 µM.

With “Ac-EQAKTFLDKFNHEAEDLFPKWSAFLKEQSTLAQMYG [Seq27]”, in data set [2], the “Mean Size (nm)” value came to 62.1 ± 10 nm and the PI was found to be 0.21. Further, in data set [3], the “folds more potent than SBP-1-ADGN-106/ADGN-106 complex” value was found to be 6 folds, the “folds more potent than SBP-1 coupled to ADGN-106” value turned out to be 6 folds, the “folds more potent than SBP-1 peptide/ADGN-106 complex” value stood at 40 folds and the “folds more potent than free SBP-1” value is recorded as 15 folds. In data set [4], the “folds more potent than SBP-1-ADGN-106/ADGN-106 complex” value came to 4 folds, the “folds more potent than SBP-1 coupled to ADGN-106” value came to 3.5 folds, the “folds more potent than SBP-1 peptide/ADGN-106 complex” value is given as 35 folds and the “folds more potent than free SBP-1” value stood at 7 folds.

Turning to “Ac-T*EYQAGSTK*Ava-LWRALWRLWRSLWRLLWK-NH2 [Seq16]”, in data set [2], the “Mean Size (nm)” value amounted to 44.2 ± 7 nm and the PI was 0.28. The IC50 in data set [3] (read-out: ACE2:SARS-CoV-2 Spike IC50) is over 10 µM. Also, the IC50 in data set [4] (read-out: SARS-CoV-2 Spike:ACE2 IC50) is over 1 µM.

In data set [5], `CC(C)C[C@H](NC(=O)[C@H](C)NC(=O)[C@H](CCCNC(=N)N)NC(=O)[C@H](Cc1c[nH]c2ccccc12)NC(=O)[C@@H](N)CC(C)C)C(=O)N[C@@H](Cc1c[nH]c2ccccc12)C(=O)N[C@@H](CCCNC(=N)N)C(=O)N[C@@H](CC(C)C)C(=O)N[C@@H](Cc1c[nH]c2ccccc12)C(=O)N[C@@H](CCCNC(=N)N)C(=O)N[C@@H](CO)C(=O)N[C@@H](CC(C)C)C(=O)N[C@@H](Cc1c[nH]c2ccccc12)C(=O)N[C@@H](CCCNC(=N)N)C(=O)N[C@@H](CC(C)C)C(=O)N[C@@H](CC(C)C)C(=O)N[C@@H](Cc1c[nH]c2ccccc12)C(=O)N[C@@H](CCCCN)C(=O)O` [ADGN-106, reference compound] showed a CC50 of 356 ± 64 µM and a viability at 0.5 µM of 84%.

In data set [1], “GCAGACGTGGTCCAGAACAAA (chemistry not given here) [DIVC-7]” displayed an IC50 of 0.147 µM.

Regarding `CC(=O)N[C@@H](CCCCN)C(=O)N[C@H](C(=O)N[C@@H](Cc1ccccc1)C(=O)N[C@@H](CC(C)C)C(=O)N[C@@H](CC(=O)O)C(=O)N[C@@H](CCCCN)C(=O)N[C@@H](Cc1ccccc1)C(=O)N[C@@H](CC(N)=O)C(=O)N[C@@H](Cc1c[nH]cn1)C(=O)N[C@@H](CCC(=O)O)C(=O)N[C@@H](C)C(=O)N[C@@H](CCC(=O)O)C(=O)N[C@@H](CC(=O)O)C(=O)N[C@@H](CC(C)C)C(=O)N[C@@H](Cc1ccccc1)C(=O)N[C@@H](Cc1ccc(O)cc1)C(=O)N[C@@H](CO)C(=O)NCCCCCC(=O)N[C@@H](CC(C)C)C(=O)N[C@@H](Cc1c[nH]c2ccccc12)C(=O)N[C@@H](CCCNC(=N)N)C(=O)N[C@@H](C)C(=O)N[C@@H](CC(C)C)C(=O)N[C@@H](Cc1c[nH]c2ccccc12)C(=O)N[C@@H](CCCNC(=N)N)C(=O)N[C@@H](CC(C)C)C(=O)N[C@@H](Cc1c[nH]c2ccccc12)C(=O)N[C@@H](CCCNC(=N)N)C(=O)N[C@@H](CO)C(=O)N[C@@H](CC(C)C)C(=O)N[C@@H](Cc1c[nH]c2ccccc12)C(=O)N[C@@H](CCCNC(=N)N)C(=O)N[C@@H](CC(C)C)C(=O)N[C@@H](CC(C)C)C(=O)N[C@@H](Cc1c[nH]c2ccccc12)C(=O)N[C@@H](CCCCN)C(N)=O)[C@@H](C)O` [Seq35], the “Mean Size (nm)” value in data set [2] was 44 ± 10 nm. Also, the PI in data set [2] amounted to 0.22. Also, the IC50 was 0.728 µM in data set [3] (ACE2:SARS-CoV-2 Spike IC50) and 0.546 µM in data set [4] (SARS-CoV-2 Spike:ACE2 IC50).

In the case of “GACCAGGAACTAATCAGACAA (chemistry not given here) [DIVC-2]”, in data set [1], the IC50 is over 0.5 µM.

In the case of “GACTTCCCTATGGTGCTAACA (chemistry not given here) [DIVC-4]”, in data set [1], the IC50 stood at 0.254 µM.

With `CC(=O)N[C@@H](CCCCN)C(=O)N[C@H](C(=O)N[C@@H](Cc1ccccc1)C(=O)N[C@@H](CC(C)C)C(=O)N[C@@H](CC(=O)O)C(=O)N[C@@H](CCCCN)C(=O)N[C@@H](Cc1ccccc1)C(=O)N[C@@H](CC(N)=O)C(=O)N[C@@H](Cc1c[nH]cn1)C(=O)N[C@@H](CCC(=O)O)C(=O)N[C@@H](C)C(=O)N[C@@H](CCC(=O)O)C(=O)N[C@@H](CC(=O)O)C(=O)N[C@@H](CC(C)C)C(=O)N[C@@H](Cc1ccccc1)C(=O)NCCCCCC(=O)N[C@@H](CC(C)C)C(=O)N[C@@H](Cc1c[nH]c2ccccc12)C(=O)N[C@@H](CCCNC(=N)N)C(=O)N[C@@H](C)C(=O)N[C@@H](CC(C)C)C(=O)N[C@@H](Cc1c[nH]c2ccccc12)C(=O)N[C@@H](CCCNC(=N)N)C(=O)N[C@@H](CC(C)C)C(=O)N[C@@H](Cc1c[nH]c2ccccc12)C(=O)N[C@@H](CCCNC(=N)N)C(=O)N[C@@H](CO)C(=O)N[C@@H](CC(C)C)C(=O)N[C@@H](Cc1c[nH]c2ccccc12)C(=O)N[C@@H](CCCNC(=N)N)C(=O)N[C@@H](CC(C)C)C(=O)N[C@@H](CC(C)C)C(=O)N[C@@H](Cc1c[nH]c2ccccc12)C(=O)N[C@@H](CCCCN)C(N)=O)[C@@H](C)O` [Seq34], the IC50 in data set [3] (ACE2:SARS-CoV-2 Spike IC50) and in data set [4] (SARS-CoV-2 Spike:ACE2 IC50) was over 1 µM throughout. In data set [6], the “Residual Infection (%)” value amounted to 100%. The viability at 0.5 µM in data set [5] worked out at 98%.

With “GCAACTGAGGGAGCCTTGAAT (chemistry not given here) [DIVC-1]”, the IC50 in data set [1] is over 0.5 µM.

With “GGCTGATGAAACTCAAGCCTT (chemistry not given here) [DIVC-5]”, the IC50 in data set [1] is over 0.5 µM.

In turn, “GCAACAATCCATGAGCAGTGC (chemistry not given here) [DIVC-10]” displayed an IC50 in data set [1] of 0.0284 µM.

As for `CSCC[C@H](NC(=O)[C@H](CCC(N)=O)NC(=O)[C@H](C)NC(=O)[C@H](CC(C)C)NC(=O)[C@@H](NC(=O)[C@H](CO)NC(=O)[C@H](CCC(N)=O)NC(=O)[C@H](CCC(=O)O)NC(=O)[C@H](CCCCN)NC(=O)[C@H](CC(C)C)NC(=O)[C@H](Cc1ccccc1)NC(=O)[C@H](C)NC(=O)[C@H](CO)NC(=O)[C@H](Cc1c[nH]c2ccccc12)NC(=O)[C@H](CCCCN)NC(=O)[C@@H]1CCCN1C(=O)[C@H](Cc1ccccc1)NC(=O)[C@H](CC(C)C)NC(=O)[C@H](CC(=O)O)NC(=O)[C@H](CCC(=O)O)NC(=O)[C@H](C)NC(=O)[C@H](CCC(=O)O)NC(=O)[C@H](Cc1c[nH]cn1)NC(=O)[C@H](CC(N)=O)NC(=O)[C@H](Cc1ccccc1)NC(=O)[C@H](CCCCN)NC(=O)[C@H](CC(=O)O)NC(=O)[C@H](CC(C)C)NC(=O)[C@H](Cc1ccccc1)NC(=O)[C@@H](NC(=O)[C@H](CCCCN)NC(=O)[C@H](C)NC(=O)[C@H](CCC(N)=O)NC(=O)[C@H](CCC(=O)O)NC(C)=O)[C@@H](C)O)[C@@H](C)O)C(=O)N[C@@H](Cc1ccc(O)cc1)C(=O)NCC(=O)NCCCCCC(=O)N[C@@H](CC(C)C)C(=O)N[C@@H](Cc1c[nH]c2ccccc12)C(=O)N[C@@H](CCCNC(=N)N)C(=O)N[C@@H](C)C(=O)N[C@@H](CC(C)C)C(=O)N[C@@H](Cc1c[nH]c2ccccc12)C(=O)N[C@@H](CCCNC(=N)N)C(=O)N[C@@H](CC(C)C)C(=O)N[C@@H](Cc1c[nH]c2ccccc12)C(=O)N[C@@H](CCCNC(=N)N)C(=O)N[C@@H](CO)C(=O)N[C@@H](CC(C)C)C(=O)N[C@@H](Cc1c[nH]c2ccccc12)C(=O)N[C@@H](CCCNC(=N)N)C(=O)N[C@@H](CC(C)C)C(=O)N[C@@H](CC(C)C)C(=O)N[C@@H](Cc1c[nH]c2ccccc12)C(=O)N[C@@H](CCCCN)C(N)=O` [Seq39], in data set [2], the “Mean Size (nm)” value is given as 48.5 ± 5 nm and the PI stood at 0.29. Besides, in data set [3], the “increase of potency/efficiency by covalent coupling to ADGN peptide” value amounted to 1.4 folds. Moreover, the IC50 in data set [3] (ACE2:SARS-CoV-2 Spike IC50) came out at 0.0684 ± 0.01 µM. The compound also showed an IC50 in data set [4] (SARS-CoV-2 Spike:ACE2 IC50) of 0.0552 µM.

In the case of `CSCC[C@H](NC(=O)[C@H](CO)NC(=O)[C@H](CC(N)=O)NC(=O)[C@H](CCC(=O)O)NC(=O)[C@H](Cc1c[nH]c2ccccc12)NC(=O)[C@H](Cc1ccccc1)NC(=O)CNC(=O)[C@H](CCC(N)=O)NC(=O)[C@@H](NC(=O)[C@H](CCSC)NC(=O)[C@H](CC(N)=O)NC(C)=O)[C@@H](C)O)C(=O)N[C@@H](CC(C)C)C(=O)N[C@H](C(=O)N[C@@H](CC(=O)O)C(=O)NCCCCCC(=O)N[C@@H](CC(C)C)C(=O)N[C@@H](Cc1c[nH]c2ccccc12)C(=O)N[C@@H](CCCNC(=N)N)C(=O)N[C@@H](C)C(=O)N[C@@H](CC(C)C)C(=O)N[C@@H](Cc1c[nH]c2ccccc12)C(=O)N[C@@H](CCCNC(=N)N)C(=O)N[C@@H](CC(C)C)C(=O)N[C@@H](Cc1c[nH]c2ccccc12)C(=O)N[C@@H](CCCNC(=N)N)C(=O)N[C@@H](CO)C(=O)N[C@@H](CC(C)C)C(=O)N[C@@H](Cc1c[nH]c2ccccc12)C(=O)N[C@@H](CCCNC(=N)N)C(=O)N[C@@H](CC(C)C)C(=O)N[C@@H](CC(C)C)C(=O)N[C@@H](Cc1c[nH]c2ccccc12)C(=O)N[C@@H](CCCCN)C(N)=O)[C@@H](C)O` [Seq37], in data set [2], the “Mean Size (nm)” value is 59.2 ± 14 nm and the PI was 0.24. This compound also displayed an IC50 in data set [3] (ACE2:SARS-CoV-2 Spike IC50) of 0.645 µM. Further, in data set [4] (SARS-CoV-2 Spike:ACE2 IC50), the IC50 is over 1 µM.
